From US8309768B2, “FTY720-derived anticancer agents” (The Ohio State University Research Foundation, priority 2010, dated 2012) come the findings set out here.

Usually IC50 stands for the point on the concentration scale where inhibition reaches its midpoint.

One data set has as its system primary CLL cells. The data set is described as follows: Cytotoxicity in primary CLL cells (Annexin V / propidium iodide flow cytometry). The class given is cell-based. The note with it: primary CLL cells, 24 hrs, OSU-2S at 8 μM. On the procedure: Antitumor and other effects of OSU-2S were also evaluated in Chronic Lymphoid Leukemia cells. OSU-2S cytotoxicity in primary CLL cells is measured at 24 hrs by staining for Annexin V and Propidium Iodide using Flow cytometer. The number of live cells (stained negative for both the stains) were normalized to untreated control. Fludarabine metabolite (2-Fara) was used as a control.
The effect of OSU-2S was evaluated in 3 different CLL cell lines (WROTH<THOU, and RAHUE) over a 24 hour period, as shown in FIG. 9. Time dependent OSU-2S cytotoxicity in primary CLL cells was measured by treating the cells with OSU-2S (8 μM) for indicated period of time and washed and cultured in the fresh media for 24 hr. The number of live cells stained negative for Annexin V and Propidium Iodide were measured at 24 hrs by using Flowcytometer and normalized to untreated control.
CD37 activation and OSU-2S produced enhanced cytotoxicity in CLL cells, as detected by flow cytometer at 24 hr. in CLL cells treated with CD37 antibody and cross linker or OSU-2S 8 μM or with both are stained for Annexin V and propidium iodide at 24 hr.

The subject of the next data set is CLL cells. The data set is described as follows: Western blot analysis in CLL cells (PARP, caspase 3, caspase 9). The format is cell-based. From the text: Western blot analysis as carried out to further observe the effects of OSU-2S in CLL cells. […] OSU-2S in CLL activates caspase, as evidenced by cleavage of poly (ADP-ribose) polymerase (PARP). Jurkat cell with or without UV irradiation were included as controls. […] OSU-2S was also shown to activate caspase 3 in CLL cells. […] Finally, OSU-2S activates caspase 9 in CLL.
(In general: Immunoblotting shows a protein as a band on a membrane.)

In a further data set the test system is PLC5 cells. The data set is described as follows: MTT cell viability assay, PLC5. The class given is cell-based. Conditions: 24 h of treatment. On the procedure:
(§1) Cell lines, culture and reagents. The HCC cell lines Hep3B, PLC5 and Huh7, as well as primary nonmalignant human hepatocytes were used in this study. Cancer cells were cultured in Dulbecco's Modified Eagle's medium (DMEM) supplemented with 10% fetal bovine serum (FBS). Hepatocytes were maintained in defined Hepatocyte Culture Medium. […] Various polyclonal and monoclonal antibodies were used for western blotting, immunocytochemical, and flow cytometric analyses.
(§2) Cell viability assay. Cell viability was assessed by 3-(4,5-dimethylthiazol-2-yl)-2,5-diphenyl-2H-tetrazolium bromide (MTT) assays in six replicates. Cells were seeded (4,000 cells/well; 96-well plate) for 24 h and treated with test agents in 5% FBS-supplemented DMEM. After treatment, cells were incubated in medium containing 0.5 mg/ml MTT (37° C., 2 h). Reduced MTT was dissolved in DMSO (200 μL/well) and absorbances measured at 570 nm.
(Tetrazolium assays rely on reduction of a dye to a coloured formazan, in cell work by metabolically active cells.)

The test system of data set [1] is lymphocytes in peripheral blood. The data set is described as follows: In vivo evaluation of T-lymphocyte homing. Conditions: CD2F1 mice, i.p., 6 h. On the procedure: In vivo evaluation of T-lymphocyte homing. […] Six hours later, animals were sacrificed, and peripheral blood mononuclear cells were prepared as described. Dragun et al., Kidney Int 65, 1076-1083 (2004). Cells were stained with FITC-labeled rat anti-mouse CD3 molecular complex and PE-labeled rat anti-mouse CD45RA (4° C., in darkness, 30 min), and analyzed by flow cytometry.

The subject of data set [2] is subcutaneous Hep3B tumors. The data set is described as follows: Ectopic (subcutaneous) Hep3B xenograft tumor model. The class given is in vivo, athymic nude mice. On the procedure:
(§3) Xenograft tumor models. Ectopic tumors were established in athymic nude mice by subcutaneous injection of 1×10^6 Hep3B cells in a total volume of 0.1 ml of serum-free medium containing 50% Matrigel. Mice with established tumors were randomized to five groups (n=8) that received daily i.p. injections of OSU-2S or FTY720 at 5 or 10 mg/kg, or the vehicle. Tumor burdens were determined weekly using calipers (volume=width^2×length×0.52). Body weights were measured weekly. At the study endpoint, tumors were harvested, snap-frozen and stored at −80° C. for biomarker analysis. Blood and tissues were collected for evaluation of complete blood counts, serum chemistry and histopathology.

The subject of data set [3] is SphK2 siRNA-transfected Huh7 cells. The data set is described as follows: Cell viability after siRNA-mediated knockdown of SphK2. The format is cell-based. The note with it: SphK2 siRNA vs scrambled. On the procedure:
as §2
Small interfering (si)RNA- or short hairpin (sh)RNA-mediated knockdown. PLC5 and Huh7 cells were transfected with the following siRNA duplexes or shRNA plasmids according to the manufacturer's protocol for the knockdown of target genes: siRNA: glutathione S-transferase (GST)-π and sphingosine kinase 2 (SphK2); shRNA constructs: pKD-PKCδ-v2. Stable clones were isolated from Huh7 cells transfected with shRNA plasmids were further subjected to stable clone isolation by geneticin. Immunoblotting was performed to confirm the knockdowns.

Data set [4] has as its target T1, PP2A (Serine/Threonine Phosphatase 2A) (Homo sapiens, UniProt P67775).
T1 construct: endogenous in cells; host or cells: primary CLL cells; Ramos cells
The data set is described as follows: PP2A functional enzymatic assay (malachite green) in primary CLL cells. The class given is cell-based. The note with it: 24 hrs, OSU-2S 8 μM, untreated about 0.07. As for the experimental part: The ability of OSU-2S to induce PP2A (Serine/Threonine Phosphatase 2A) activity in primary CLL cells was measured at 24 hrs by a functional enzymatic assay. Lysates made from OSU-2S 8 μM treated cells are used to immunoprecipitate PP2Ac which was then used as an enzyme to cleave the specific phosphor-peptide substrate in the functional assay. The cleaved free phosphates were measured by adding malachite green detection solutions and measuring the absorbance at A650 nm. Ramos cells were also included, and FTY720 was used as the control.

Data set [5] has as its system PTEN, p53, Mcl-1 in Huh7 cells. The data set is described as follows: Western blot of signaling markers in drug-treated Huh7 cells. The class given is cell-based. Conditions: 24 h. On the procedure: Immunoblotting. Immunoblotting of biomarkers in cell lysates and tumor tissue homogenates was carried out according to a published procedure. Hung et al., Cancer Res., 68, 1204-1212 (2008).

A short description of data set [6]: Toxicity evaluation in tumor-bearing mice (body weight, blood counts, histopathology). The format is in vivo, athymic nude mice. The note with it: for mice with abdominal adhesions with varying amounts of peritonitis: of six mice per group examined histologically. As for the experimental part:
as §3
Orthotopic tumors were established by direct intrahepatic injection of luciferase-expressing Hep3B (Hep3B-luc) cells as described. Omar et al., Mol Pharmacol, 76, 957-968 (2009). The establishment and growth of tumors were monitored by bioluminescent imaging using the IVIS™ imaging system (Xenogen, Alameda, Calif.). Two weeks after tumor cell injection, animals with established tumors were randomized to three groups (n=3) that received daily i.p. injections of FTY720 or OSU-2S at 5 mg/kg, or vehicle for 42 days and were imaged weekly. All animal use described in this manuscript was done in accordance with protocols approved by The Ohio State University Institutional Animal Care and Use Committee.

The test system of data set [7] is orthotopic Hep3B-luc tumors. The data set is described as follows: Orthotopic Hep3B-luc xenograft tumor model. The format is in vivo, athymic nude mice. Conditions: by three weeks. Also on record: dose or concentration left out as unconfirmed. From the text:
Orthotopic tumors were established by direct intrahepatic injection of luciferase-expressing Hep3B (Hep3B-luc) cells as described. Omar et al., Mol Pharmacol, 76, 957-968 (2009). The establishment and growth of tumors were monitored by bioluminescent imaging using the IVIS™ imaging system (Xenogen, Alameda, Calif.). […] All animal use described in this manuscript was done in accordance with protocols approved by The Ohio State University Institutional Animal Care and Use Committee.

Another data set has as its system normal human hepatocytes. The data set is described as follows: MTT cell viability assay, normal hepatocytes. Conditions: 24 h. The format is cell-based. On the procedure:
as §1, §2

For another data set, the system named is Huh7 cells. The data set is described as follows: MTT cell viability assay, Huh7. The class given is cell-based. On the procedure: as §1, §2
Data set [8] concerns the target T2, S1P1 receptor-overexpressing Huh7 cells (Homo sapiens, UniProt P21453).
T2 construct: expressed in transfected cells
The data set is described as follows: Cell viability in stable S1P1 receptor transfectants. Conditions: two stable S1P1 clones vs wild-type Huh7. The format is cell-based. As for the experimental part: as §2
Overexpression of S1P1 Receptors. Huh7 or Hep3B cells were transfected with plasmids encoding S1PR1, Flag-tagged GST-π or hemagglutinin (HA)-tagged, CA-Akt. The corresponding empty vectors were used as controls. Stable clones were selected over 3 weeks by geneticin, and the expression of cloned proteins was confirmed by Western blotting.

For a further data set, the system named is Hep3B cells. The data set is described as follows: MTT cell viability assay, Hep3B. The class given is cell-based. Conditions: Homo sapiens, 24 h of treatment. On the procedure:
as §1, §2

The target of data set [9] is T2, S1P1 receptor-overexpressing Huh7 cells. The data set is described as follows: Immunocytochemical analysis of S1P1 receptor internalization. The class given is cell-based. Conditions: immunocytochemistry.
Description: Immunocytochemistry. Immunocytochemical analysis of S1P1 internalization and PKCδ nuclear translocation were performed as described. […] Briefly, treated cells were washed, fixed with 4% paraformaldehyde, and permeabilized with 0.1% Triton X-100. After blocking with 2% FBS, cells were incubated with rabbit anti-S1P1 or rabbit anti-PKCδ antibodies (1:200 dilution, 4° C., 24 h), followed by Alexa Fluor 488-conjugated goat anti-rabbit IgG (room temperature, 1 h). Nuclei were counterstained with a 4,6-diamidino-2-phenylindole (DAPI)-containing mounting medium (Vector Laboratories, Burlingame, Calif.).

Where only a bound is given, the exact number is not on record here.

T2 sequence (P21453 whole entry): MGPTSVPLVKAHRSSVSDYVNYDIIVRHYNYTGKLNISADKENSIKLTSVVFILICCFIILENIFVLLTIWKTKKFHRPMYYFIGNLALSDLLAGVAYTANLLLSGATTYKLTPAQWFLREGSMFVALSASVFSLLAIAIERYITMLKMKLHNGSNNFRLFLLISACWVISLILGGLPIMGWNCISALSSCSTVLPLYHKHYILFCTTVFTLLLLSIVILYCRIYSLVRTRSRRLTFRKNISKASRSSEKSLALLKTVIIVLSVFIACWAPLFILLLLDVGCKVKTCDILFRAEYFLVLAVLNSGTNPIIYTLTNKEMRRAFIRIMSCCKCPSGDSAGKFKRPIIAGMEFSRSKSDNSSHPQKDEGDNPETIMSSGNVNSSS
T1 sequence (P67775 whole entry): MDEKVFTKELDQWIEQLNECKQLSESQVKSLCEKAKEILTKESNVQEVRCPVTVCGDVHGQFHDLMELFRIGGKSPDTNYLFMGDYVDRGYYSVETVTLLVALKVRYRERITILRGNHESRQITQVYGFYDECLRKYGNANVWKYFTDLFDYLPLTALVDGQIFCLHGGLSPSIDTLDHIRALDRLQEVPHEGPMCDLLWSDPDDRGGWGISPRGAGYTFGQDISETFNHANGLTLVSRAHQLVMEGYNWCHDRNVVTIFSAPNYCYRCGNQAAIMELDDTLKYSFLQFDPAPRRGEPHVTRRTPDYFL

Consider `Nc1nc(F)nc2c1ncn2[C@@H]1O[C@H](CO)[C@@H](O)[C@@H]1O` [2-Fara, reference compound], for which the “growth (live cells normalized to untreated control)” value in the data set on primary CLL cells is reported as 100%. The “caspase 3 activation” value with CLL cells (24 and 48 hours, products at about 16-18 kD) was “caspase 3 cleaved products”. Also, in the data set with CLL cells (products at about 30-34 kD), the “caspase 9 activation” value is given as “caspase 9 cleaved products”.
As to `CCCCCCCCc1ccc(CCC(N)(CO)CO)cc1` [FTY720], the IC50 in the data set on PLC5 cells amounted to 6.2 µM; in the data set on Huh7 cells (Homo sapiens, Huh-7, 24 h of treatment, MTT) it was 4.8 µM; with Hep3B cells, 4.2 µM. Besides, in data set [1] (1 mg/kg), the “drop in the number of T lymphocytes in peripheral blood” value is no less than 75%. Moreover, the “changes in circulating B lymphocytes” value in data set [1] was “no comparable changes”. Moreover, the “ectopic Hep3B tumor growth vs vehicle control” value in [2] (5 mg/kg, i.p. once daily, P<0.001) was “completely suppressed”. The “dose dependency of tumor-suppressive response” value in data set [2] (5 and 10 mg/kg i.p. daily) is given as “no dose dependency”. Also, in data set [2] (Hep3B tumor tissue homogenates, Western blot), the “intratumoral biomarkers of drug activity” value was “PKCδ and caspase-3 were activated”. Also, the “effect of SphK2 knockdown on antiproliferative activity (sensitizing effect)” value in data set [3] was “significantly increased”. Further, in data set [4], the “PP2A activity, absorbance at A650 nm” value was “about 0.20”. Also, the “effect on expression levels of PTEN, p53, or Mcl-1” value in data set [5] is “neither OSU-2S nor FTY720 had an appreciable effect”. Moreover, the “mice with abdominal adhesions with varying amounts of peritonitis” value in [6] (5 mg/kg) is “three”; in [6] (10 mg/kg) it was “all”. The lymphocyte levels result in data set [6] (ectopic tumor-bearing mice at study endpoint) is “minimal to mild lymphopenia”. In addition, the “overt toxicity and body weight” value in data set [6] (ectopic tumor-bearing mice, daily i.p. 5 or 10 mg/kg) is “no overt signs of toxicity and no loss of body weight”. The “tolerability (stable body weights)” value in data set [6] (orthotopic tumor-bearing mice, daily i.p., 42 days) was “well tolerated”. Further, in data set [7], the “orthotopic tumor burden (bioluminescence)” value is listed as “suppressed mean tumor burden to the original level”. Besides, the “sensitivity of normal human hepatocytes relative to malignant cells” value in the data set on normal human hepatocytes is given as “resistant”. Further, the “effect of S1P1 receptor overexpression on antiproliferative activity” value in [8] was “partially protected”. Further, the “S1P1 receptor internalization and clustering in the cytoplasm” value in data set [9] was “profound effect”.
With `CCCCCCCCc1ccc(CCC(N)(CO)COP(=O)(O)O)cc1` (stereo not drawn) [p-FTY720], the “suppression of HCC cell viability by phosphate derivatives” value in the data set with Huh7 cells (24 h, MTT (FIG. 6A)) is “lacks in vitro efficacy”.
